Source: ChEMBL document CHEMBL3870329, “Synthesis of peptide nucleic acids (PNA) with a crosslinking agent to RNA and effective inhibition of dicer” (Bioorg Med Chem Lett, 2016)
Blank lines part the entries; values can stand above or below the molecule they belong to. Calls of active or inactive are those of the source. No cut-off for these calls is given here.

Columns and labels:
[1] = Binding affinity to 5'-end FAM-tagged GACTCAATCCCAATCTGGTT DNA (unknown origin) assessed as change in melting temperature at 1.5 uM measured after 5 mins by UV spectrophotometry
[2] = Binding affinity to 5'-end FAM-tagged GACACAATCCCAATCTGGTT DNA (unknown origin) assessed as change in melting temperature at 1.5 uM measured after 5 mins by UV spectrophotometry
[3] = Binding affinity to 5'-end FAM-tagged GACUCAAUCCCAAUCUGGUU RNA (unknown origin) assessed as change in melting temperature at 1.5 uM measured after 5 mins by UV spectrophotometry
[4] = Binding affinity to 5'-end FAM-tagged GACACAAUCCCAAUCUGGUU RNA (unknown origin) assessed as change in melting temperature at 1.5 uM measured after 5 mins by UV spectrophotometry
[5] = Binding affinity to 5'-end FAM-tagged GACCCAAUCCCAAUCUGGUU RNA (unknown origin) assessed as change in melting temperature at 1.5 uM measured after 5 mins by UV spectrophotometry
[6] = Binding affinity to 5'-end FAM-tagged GACCCAATCCCAATCTGGTT DNA (unknown origin) assessed as change in melting temperature at 1.5 uM measured after 5 mins by UV spectrophotometry
[7] = Binding affinity to 5'-end FAM-tagged GACGCAATCCCAATCTGGTT DNA (unknown origin) assessed as change in melting temperature at 1.5 uM measured after 5 mins by UV spectrophotometry
[8] = Binding affinity to 5'-end FAM-tagged GACGCAAUCCCAAUCUGGUU RNA (unknown origin) assessed as change in melting temperature at 1.5 uM measured after 5 mins by UV spectrophotometry
Nucleic Acid [9] = test: Binding affinity to 5'-end FAM-tagged GACCAACCCCAAUCUGGUU RNA (unknown origin) assessed as induction of crosslinking by measuring heteroduplex formation at 4 uM measured after 24 hrs by bromophenol blue staining-based denaturing PAGE analysis relative to control; type: nucleic-acid assay
Nucleic Acid [10] = test: Binding affinity to 5'-end FAM-tagged GACCAACCCCAATCTGGTT DNA (unknown origin) assessed as induction of crosslinking by measuring heteroduplex formation at 4 uM measured after 24 hrs by bromophenol blue staining-based denaturing PAGE analysis relative to control; type: nucleic-acid assay
Nucleic Acid [11] = test: Binding affinity to 5'-end FAM-tagged GACCAAACCCAAUCUGGUU RNA (unknown origin) assessed as induction of crosslinking by measuring heteroduplex formation at 4 uM measured after 24 hrs by bromophenol blue staining-based denaturing PAGE analysis relative to control; type: nucleic-acid assay
Nucleic Acid [12] = test: Binding affinity to 5'-end FAM-tagged GACCAAGCCCAAUCUGGUU RNA (unknown origin) assessed as induction of crosslinking by measuring heteroduplex formation at 4 uM measured after 24 hrs by bromophenol blue staining-based denaturing PAGE analysis relative to control; type: nucleic-acid assay
Nucleic Acid [13] = test: Binding affinity to 5'-end FAM-tagged GACCAAGCCCAATCTGGTT DNA (unknown origin) assessed as induction of crosslinking by measuring heteroduplex formation at 4 uM measured after 24 hrs by bromophenol blue staining-based denaturing PAGE analysis relative to control; type: nucleic-acid assay
unidentified [14] = test: Binding affinity to 5'-end FAM-tagged GACCAATCCCAATCTGGTT DNA (unknown origin) assessed as melting temperature at 1.5 uM measured after 5 mins by UV spectrophotometry (reference value: 67.4 degC)
Nucleic Acid [15] = test: Binding affinity to 5'-end FAM-tagged GACCAATCCCAATCTGGTT DNA (unknown origin) assessed as induction of crosslinking by measuring heteroduplex formation at 4 uM measured after 24 hrs by bromophenol blue staining-based denaturing PAGE analysis relative to control; type: nucleic-acid assay
Nucleic Acid [16] = test: Binding affinity to 5'-end FAM-tagged GACCAAACCCAATCTGGTT DNA (unknown origin) assessed as induction of crosslinking by measuring heteroduplex formation at 4 uM measured after 24 hrs by bromophenol blue staining-based denaturing PAGE analysis relative to control; type: nucleic-acid assay
unidentified [17] = test: Binding affinity to 5'-end FAM-tagged GACCAAUCCCAAUCUGGUU RNA (unknown origin) assessed as melting temperature at 1.5 uM measured after 5 mins by UV spectrophotometry (reference value: 77.1 degC)
Nucleic Acid [18] = test: Binding affinity to 5'-end FAM-tagged GACCAAUCCCAAUCUGGUU RNA (unknown origin) assessed as induction of crosslinking by measuring heteroduplex formation at 4 uM measured after 24 hrs by bromophenol blue staining-based denaturing PAGE analysis relative to control; type: nucleic-acid assay
Nucleic Acid [19] = test: Binding affinity to synthetic 5'-fluorescein-labelled pre-miR-122 RNA site2 (unknown origin) assessed as heteroduplex formation at 4 uM measured after 48 hrs by non-denaturing PAGE analysis relative to control; type: nucleic-acid assay
Nucleic Acid [20] = test: Binding affinity to synthetic 5'-FAM-labelled pre-miR-122 RNA site2 (unknown origin) assessed as inhibition of human dicer-mediated digestion of pre-miR-122 RNA preincubated with RNA for 2 days followed by dicer addition measured after 2 hrs by denaturing PAGE analysis relative to control; type: nucleic-acid assay; conditions: concentration not given here
Nucleic Acid [21] = test: Binding affinity to 5'-end FAM-tagged GUGGUAACAGUGUGAGGU RNA (unknown origin) assessed as induction of crosslinking by measuring heteroduplex formation at 4 uM measured after 24 hrs by bromophenol blue staining-based denaturing PAGE analysis; type: nucleic-acid assay
Nucleic Acid [22] = test: Binding affinity to synthetic 5'-FAM-labelled pre-miR-122 RNA site2 (unknown origin) assessed as heteroduplex formation at 4 uM measured after 2 hrs by denaturing PAGE analysis relative to control; type: nucleic-acid assay
Nucleic Acid [23] = test: Binding affinity to synthetic 5'-FAM-labelled pre-miR-122 RNA site2 (unknown origin) assessed as human dicer-mediated digestion of pre-miR-122 RNA preincubated with RNA for 2 days followed by dicer addition measured after 2 hrs by denaturing PAGE analysis; type: nucleic-acid assay
Nucleic Acid [24] = test: Binding affinity to synthetic 5'-FAM-labelled pre-miR-122 RNA site3 (unknown origin) assessed as inhibition of human dicer-mediated digestion of pre-miR-122 RNA by measuring heteroduplex formation preincubated with RNA for 2 days followed by dicer addition measured after 2 hrs by denaturing PAGE analysis relative to control; type: nucleic-acid assay; conditions: concentration not given here
Nucleic Acid [25] = test: Binding affinity to synthetic 5'-fluorescein-labelled pre-miR-122 RNA site3 (unknown origin) assessed as heteroduplex formation at 4 uM measured after 48 hrs by non-denaturing PAGE analysis relative to control; type: nucleic-acid assay
Nucleic Acid [26] = test: Binding affinity to 5'-end FAM-tagged GCAAACUAUCAAAUCUGUGU RNA (unknown origin) assessed as induction of crosslinking by measuring heteroduplex formation at 4 uM measured after 24 hrs by bromophenol blue staining-based denaturing PAGE analysis; type: nucleic-acid assay
Nucleic Acid [27] = test: Binding affinity to synthetic 5'-FAM-labelled pre-miR-122 RNA site3 (unknown origin) assessed as human dicer-mediated digestion of pre-miR-122 RNA preincubated with RNA for 2 days followed by dicer addition measured after 2 hrs by denaturing PAGE analysis; type: nucleic-acid assay
Nucleic Acid [28] = test: Binding affinity to synthetic 5'-FAM-labelled pre-miR-122 RNA site3 (unknown origin) assessed as heteroduplex formation at 4 uM measured after 2 hrs by denaturing PAGE analysis relative to control; type: nucleic-acid assay
Nucleic Acid [29] = test: Binding affinity to synthetic 5'-fluorescein-labelled pre-miR-122 RNA site1 (unknown origin) assessed as heteroduplex formation at 4 uM measured after 48 hrs by non-denaturing PAGE analysis relative to control; type: nucleic-acid assay
Nucleic Acid [30] = test: Binding affinity to synthetic 5'-FAM-labelled pre-miR-122 RNA site1 (unknown origin) assessed as human dicer-mediated digestion of pre-miR-122 RNA preincubated with RNA for 2 days followed by dicer addition measured after 2 hrs by denaturing PAGE analysis; type: nucleic-acid assay
Nucleic Acid [31] = test: Binding affinity to 5'-end FAM-tagged CACUAUUACCGCAAACUAUC RNA (unknown origin) assessed as induction of crosslinking by measuring heteroduplex formation at 4 uM measured after 24 hrs by bromophenol blue staining-based denaturing PAGE analysis; type: nucleic-acid assay
Nucleic Acid [32] = test: Binding affinity to synthetic 5'-FAM-labelled pre-miR-122 RNA site1 (unknown origin) assessed as inhibition of human dicer-mediated digestion of pre-miR-122 RNA preincubated with RNA for 2 days followed by dicer addition measured after 2 hrs by denaturing PAGE analysis relative to control; type: nucleic-acid assay; conditions: concentration not given here
Nucleic Acid [33] = test: Binding affinity to synthetic 5'-FAM-labelled pre-miR-122 RNA site1 (unknown origin) assessed as heteroduplex formation at 4 uM measured after 2 hrs by denaturing PAGE analysis relative to control; type: nucleic-acid assay

SMILES: Cc1cn(CC(=O)N(CCNC(=O)CN(CCNC(=O)CN(CCNC(=O)CN(CCNC(=O)CN(CCNC(=O)CN(CCN)C(=O)Cn2cnc3c(N)ncnc32)C(=O)Cn2cc(C)c(=O)[nH]c2=O)C(=O)Cn2cnc3c(N)ncnc32)C(=O)Cn2cnc3c(=O)[nH]c(N)nc32)C(=O)Cn2cc(C)c(=O)[nH]c2=O)CC(=O)NCCN(CC(=O)NCCN(CC(=O)NCCN(CC(=O)NCCN(CC(=O)NCCN(CC(=O)NCCN(CC(=O)NCCN(CC(=O)N[C@@H](CCCNC(=N)N)C(=O)O)C(=O)Cn2ccc(N)nc2=O)C(=O)Cn2cnc3c(N)ncnc32)C(=O)Cn2ccc(N)nc2=O)C(=O)Cn2cnc3c(N)ncnc32)C(=O)Cn2cnc3c(=O)[nH]c(N)nc32)C(=O)Cn2cnc3c(N)ncnc32)C(=O)Cn2cc(C)c(=O)[nH]c2=O)c(=O)[nH]c1=O
- inhibition (Nucleic Acid [24]): 47%
- Activity (Nucleic Acid [25]): 75%
- Activity (Nucleic Acid [26]): Active
- Activity (Nucleic Acid [27]): 53%
- Activity (Nucleic Acid [28]): 0%

SMILES: Cc1cn(CC(=O)N(CCNC(=O)CN(CCNC(=O)CN(CCNC(=O)CN(CCNC(=O)CN(CCNC(=O)CN(CCNC(=O)CN(CCNC(=O)CN(CCN)C(=O)Cn2cnc3c(N)ncnc32)C(=O)Cn2cc(C)c(=O)[nH]c2=O)C(=O)Cn2cnc3c(=O)[nH]c(N)nc32)C(=O)Cn2cnc3c(=O)[nH]c(N)nc32)C(=O)Cn2ccc(N)nc2=O)C(=O)Cn2cnc3c(=O)[nH]c(N)nc32)C(=O)Cn2cc(C)c(=O)[nH]c2=O)CC(=O)NCCN(CC(=O)NCCN(CC(=O)NCCN(CC(=O)NCCN(CC(=O)NCCN(CC(=O)N[C@@H](CCCNC(=N)N)C(=O)O)C(=O)Cn2cnc3c(N)ncnc32)C(=O)Cn2cc(C)c(=O)[nH]c2=O)C(=O)Cn2cnc3c(N)ncnc32)C(=O)Cn2cnc3c(=O)[nH]c(N)nc32)C(=O)Cn2cc(C)c(=O)[nH]c2=O)c(=O)[nH]c1=O
- Activity (Nucleic Acid [29]): 16%
- Activity (Nucleic Acid [30]): 91%
- Activity (Nucleic Acid [31]): Active
- inhibition (Nucleic Acid [32]): 9%
- Activity (Nucleic Acid [33]): 0%

Further lines, results first:

- ΔTm [1]: -1.1 °C
- ΔTm [2]: -2.7 °C
- ΔTm [3]: -2.3 °C
- ΔTm [4]: -4.2 °C
- ΔTm [5]: -2.5 °C
- ΔTm [6]: -1.7 °C
- ΔTm [7]: -1.9 °C
- ΔTm [8]: -2.1 °C
SMILES: CSCCc1nc(N)nc2c1ncn2CC(=O)N(CCNC(C)=O)CC(=O)NCCN(CC(=O)NCCN(CC(=O)NCCN(CC(=O)NCCN(CC(=O)NCCN(CC(=O)NCCN(CC(=O)NCCN(CC(=O)NCCN(CC(=O)NCCN(CC(=O)NCCN(CC(=O)NCCN(CC(=O)N[C@@H](CCCNC(=N)N)C(=O)N[C@@H](CCCNC(=N)N)C(=O)NCC(N)=O)C(=O)Cn1cnc2c(=O)[nH]c(N)nc21)C(=O)Cn1cnc2c(N)ncnc21)C(=O)Cn1cc(C)c(=O)[nH]c1=O)C(=O)Cn1cc(C)c(=O)[nH]c1=O)C(=O)Cn1cnc2c(=O)[nH]c(N)nc21)C(=O)Cn1cnc2c(=O)[nH]c(N)nc21)C(=O)Cn1cnc2c(=O)[nH]c(N)nc21)C(=O)Cn1cnc2c(N)ncnc21)C(=O)Cn1cc(C)c(=O)[nH]c1=O)C(=O)Cn1cc(C)c(=O)[nH]c1=O)C(=O)Cn1cnc2c(=O)[nH]c(N)nc21

- Activity (Nucleic Acid [9]): 0%
- Activity (Nucleic Acid [10]): 1%
- Activity (Nucleic Acid [11]): 0%
- Activity (Nucleic Acid [12]): 4%
- Activity (Nucleic Acid [13]): 7%
- Tm (unidentified [14]): 77.3 °C
- Activity (Nucleic Acid [15]): 3%
- Activity (Nucleic Acid [16]): 0%
- Tm (unidentified [17]): 83 °C
- Activity (Nucleic Acid [18]): 2%
SMILES: C=Cc1nc(N)nc2c1ncn2CC(=O)N(CCNC(=O)CN(CCNC(=O)CN(CCNC(=O)CN(CCNC(C)=O)C(=O)Cn1cnc2c(=O)[nH]c(N)nc21)C(=O)Cn1cc(C)c(=O)[nH]c1=O)C(=O)Cn1cc(C)c(=O)[nH]c1=O)CC(=O)NCCN(CC(=O)NCCN(CC(=O)NCCN(CC(=O)NCCN(CC(=O)NCCN(CC(=O)NCCN(CC(=O)NCCN(CC(=O)N[C@@H](CCCNC(=N)N)C(=O)N[C@@H](CCCNC(=N)N)C(=O)NCC(N)=O)C(=O)Cn1cnc2c(=O)[nH]c(N)nc21)C(=O)Cn1cnc2c(N)ncnc21)C(=O)Cn1cc(C)c(=O)[nH]c1=O)C(=O)Cn1cc(C)c(=O)[nH]c1=O)C(=O)Cn1cnc2c(=O)[nH]c(N)nc21)C(=O)Cn1cnc2c(=O)[nH]c(N)nc21)C(=O)Cn1cnc2c(=O)[nH]c(N)nc21

- Activity (Nucleic Acid [19]): 28%
- inhibition (Nucleic Acid [20]): 22%
- Activity (Nucleic Acid [21]): Active
- Activity (Nucleic Acid [22]): 0%
- Activity (Nucleic Acid [23]): 78%
SMILES: Cc1cn(CC(=O)N(CCNC(=O)CN(CCNC(=O)CN(CCNC(=O)CN(CCNC(=O)CN(CCNC(=O)CN(CCNC(=O)CN(CCNC(=O)CN(CCNC(=O)CN(CCNC(=O)CN(CCNC(=O)CN(CCN)C(=O)Cn2cnc3c(N)ncnc32)C(=O)Cn2cc(C)c(=O)[nH]c2=O)C(=O)Cn2cc(C)c(=O)[nH]c2=O)C(=O)Cn2cnc3c(=O)[nH]c(N)nc32)C(=O)Cn2cc(C)c(=O)[nH]c2=O)C(=O)Cn2ccc(N)nc2=O)C(=O)Cn2cnc3c(N)ncnc32)C(=O)Cn2ccc(N)nc2=O)C(=O)Cn2cnc3c(N)ncnc32)C(=O)Cn2ccc(N)nc2=O)CC(=O)NCCN(CC(=O)NCCN(CC(=O)N[C@@H](CCCNC(=N)N)C(=O)O)C(=O)Cn2ccc(N)nc2=O)C(=O)Cn2ccc(N)nc2=O)c(=O)[nH]c1=O
